Results published in ChEMBL document CHEMBL1201862, “PubChem BioAssay data set” (2004).
Calls of active or inactive are those of the source.

Experiments:
cells [1] = type: functional, cell-based
cells [2] = type: functional, cell-based; remark: listed apart in the source
[3] = target: T1, Rac GTPase-activating protein 1 (Homo sapiens, UniProt Q9H0H5); assay: blockers of MgcRacGAP-driven Rac1 GTP hydrolysis – biochemical, ADP Hunter fluorescence, primary and confirmatory, confirmation (AID 624330); type: functional
T1 sequence (Q9H0H5 whole entry): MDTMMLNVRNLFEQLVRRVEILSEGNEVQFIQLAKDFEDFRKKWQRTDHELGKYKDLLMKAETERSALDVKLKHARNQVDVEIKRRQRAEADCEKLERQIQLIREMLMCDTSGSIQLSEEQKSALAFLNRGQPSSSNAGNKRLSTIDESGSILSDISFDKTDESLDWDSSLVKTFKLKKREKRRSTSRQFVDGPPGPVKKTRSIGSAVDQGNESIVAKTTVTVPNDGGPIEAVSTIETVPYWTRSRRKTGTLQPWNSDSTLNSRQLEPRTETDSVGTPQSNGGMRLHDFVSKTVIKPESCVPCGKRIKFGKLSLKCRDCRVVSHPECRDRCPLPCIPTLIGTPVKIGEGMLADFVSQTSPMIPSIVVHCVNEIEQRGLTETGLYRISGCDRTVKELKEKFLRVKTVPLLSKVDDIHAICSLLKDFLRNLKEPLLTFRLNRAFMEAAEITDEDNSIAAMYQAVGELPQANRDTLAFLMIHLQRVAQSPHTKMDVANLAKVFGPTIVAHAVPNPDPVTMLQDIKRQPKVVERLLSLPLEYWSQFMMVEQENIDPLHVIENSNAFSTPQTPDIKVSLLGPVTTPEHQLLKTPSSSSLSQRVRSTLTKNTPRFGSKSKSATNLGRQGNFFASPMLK

[4] = target: FAD-linked sulfhydryl oxidase ALR (Homo sapiens, UniProt P55789); assay: ALR-catalysed DTT oxidation blockers – biochemical, H2O2 detection, luminescence, cherry-pick, dose response (AID 493248)
[5] = viability of HCT116 lacking mutant beta-catenin – cell-based, human colon tumor, dose response (AID 1045); type: functional;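 also: HCT116 colon tumor cells with beta catenin knocked out; cells exposed to compound for 60 hours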
[6] = viability of PTEN-deleted HCT116 cells – cell-based, HCT116 PTEN knockout, dose response (AID 1047); type: functional;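 also: HCT116 colon tumor cells with PTEN knocked out; cells exposed to compound for 60 hours before readout; potency for loss of cell viability measured by luminescence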
Fatty acid synthase [7] = target: T2, Fatty acid synthase (Homo sapiens, UniProt P49327); assay: inhibition of human FAS-TE enzyme activity – biochemical, kinetic fluorescence intensity, dose response (AID 624326); type: functional;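 also: rate of fluorescence rise from hydrolysis of a fluorogenic O-methyl fluorescein ester substrate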
Fatty acid synthase [8] = target: T2, Fatty acid synthase; assay: inhibition of human FAS-TE enzyme activity – biochemical, endpoint fluorescence intensity, uHTS hits, dose response (AID 624327); type: functional;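 also: fluorescence from hydrolysis of an O-methyl fluorescein acyl ester substrate by the enzyme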
[9] = viability of uninfected HEp-2 cells – cell-based, HTS, cytotoxicity control for RSV inhibitor project, dose response (AID 2410); type: functional; details: human respiratory syncytial virus
cells [10] = type: functional
[11] = target: T3, Replicative DNA helicase DnaB (Mycobacterium tuberculosis, UniProt P9WMR3); assay: DnaB intein splicing inhibitors, dose response, biochemical, cell-free fluorescence (AID 449749); type: functional
T3 sequence (P9WMR3 whole entry): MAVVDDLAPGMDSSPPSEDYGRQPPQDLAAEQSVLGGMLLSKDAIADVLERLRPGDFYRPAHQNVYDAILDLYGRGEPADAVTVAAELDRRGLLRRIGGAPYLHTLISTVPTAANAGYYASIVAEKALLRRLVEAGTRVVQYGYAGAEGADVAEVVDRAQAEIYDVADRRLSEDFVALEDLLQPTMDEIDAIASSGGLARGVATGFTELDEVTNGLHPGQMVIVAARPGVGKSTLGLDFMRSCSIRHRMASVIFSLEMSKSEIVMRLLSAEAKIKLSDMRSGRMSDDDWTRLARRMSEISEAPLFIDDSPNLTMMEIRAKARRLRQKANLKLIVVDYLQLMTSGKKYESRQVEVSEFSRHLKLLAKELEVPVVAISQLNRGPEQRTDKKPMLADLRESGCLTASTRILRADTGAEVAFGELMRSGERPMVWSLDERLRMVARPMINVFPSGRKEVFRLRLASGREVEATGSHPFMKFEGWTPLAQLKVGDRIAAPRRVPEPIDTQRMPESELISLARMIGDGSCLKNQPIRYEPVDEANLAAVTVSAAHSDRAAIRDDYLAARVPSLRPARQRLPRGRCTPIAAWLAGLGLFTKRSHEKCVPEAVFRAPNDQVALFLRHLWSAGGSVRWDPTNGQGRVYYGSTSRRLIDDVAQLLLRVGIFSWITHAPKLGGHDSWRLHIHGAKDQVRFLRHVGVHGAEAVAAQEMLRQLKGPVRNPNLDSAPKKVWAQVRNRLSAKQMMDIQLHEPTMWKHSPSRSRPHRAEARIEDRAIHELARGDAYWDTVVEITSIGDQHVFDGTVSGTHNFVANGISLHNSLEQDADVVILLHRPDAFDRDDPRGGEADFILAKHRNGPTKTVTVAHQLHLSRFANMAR

Protein RecA = target: T4, Protein RecA (Mycobacterium tuberculosis, UniProt P9WHJ3); assay: Fluorescence Cell-Free Homogeneous Dose Retest to Identify Inhibitors of RecA-Intein Splicing Activity. [Related pubchem assays (depositor defined):AID2097, AID2223, AID489010, AID492950]; type: functional
T4 sequence (P9WHJ3 whole entry): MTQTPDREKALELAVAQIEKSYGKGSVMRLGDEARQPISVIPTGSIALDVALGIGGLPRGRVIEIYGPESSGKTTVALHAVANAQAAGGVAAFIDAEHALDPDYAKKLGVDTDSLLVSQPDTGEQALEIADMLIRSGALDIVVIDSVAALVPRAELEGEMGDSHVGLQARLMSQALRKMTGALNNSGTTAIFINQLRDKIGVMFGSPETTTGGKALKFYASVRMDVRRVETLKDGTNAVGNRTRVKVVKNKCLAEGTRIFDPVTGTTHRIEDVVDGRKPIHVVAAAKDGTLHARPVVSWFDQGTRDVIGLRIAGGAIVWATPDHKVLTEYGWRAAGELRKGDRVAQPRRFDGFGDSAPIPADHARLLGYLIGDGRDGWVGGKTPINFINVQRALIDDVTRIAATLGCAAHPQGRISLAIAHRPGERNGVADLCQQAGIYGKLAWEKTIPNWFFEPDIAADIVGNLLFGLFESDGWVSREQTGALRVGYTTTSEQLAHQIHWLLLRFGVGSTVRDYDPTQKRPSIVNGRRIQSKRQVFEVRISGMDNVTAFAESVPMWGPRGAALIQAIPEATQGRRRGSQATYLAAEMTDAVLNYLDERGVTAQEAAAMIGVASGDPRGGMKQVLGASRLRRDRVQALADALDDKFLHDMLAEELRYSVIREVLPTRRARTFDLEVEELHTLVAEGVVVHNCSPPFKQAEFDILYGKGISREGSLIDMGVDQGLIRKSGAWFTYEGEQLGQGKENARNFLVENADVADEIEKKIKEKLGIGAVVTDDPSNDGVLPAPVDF

FAD-linked sulfhydryl oxidase ALR, sequence (P55789 whole entry): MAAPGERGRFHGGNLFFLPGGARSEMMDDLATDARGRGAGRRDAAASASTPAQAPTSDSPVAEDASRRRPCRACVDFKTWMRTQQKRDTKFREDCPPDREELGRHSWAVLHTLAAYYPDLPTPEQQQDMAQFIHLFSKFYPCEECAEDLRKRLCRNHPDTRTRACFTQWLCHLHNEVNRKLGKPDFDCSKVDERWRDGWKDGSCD
T2 sequence (P49327 whole entry): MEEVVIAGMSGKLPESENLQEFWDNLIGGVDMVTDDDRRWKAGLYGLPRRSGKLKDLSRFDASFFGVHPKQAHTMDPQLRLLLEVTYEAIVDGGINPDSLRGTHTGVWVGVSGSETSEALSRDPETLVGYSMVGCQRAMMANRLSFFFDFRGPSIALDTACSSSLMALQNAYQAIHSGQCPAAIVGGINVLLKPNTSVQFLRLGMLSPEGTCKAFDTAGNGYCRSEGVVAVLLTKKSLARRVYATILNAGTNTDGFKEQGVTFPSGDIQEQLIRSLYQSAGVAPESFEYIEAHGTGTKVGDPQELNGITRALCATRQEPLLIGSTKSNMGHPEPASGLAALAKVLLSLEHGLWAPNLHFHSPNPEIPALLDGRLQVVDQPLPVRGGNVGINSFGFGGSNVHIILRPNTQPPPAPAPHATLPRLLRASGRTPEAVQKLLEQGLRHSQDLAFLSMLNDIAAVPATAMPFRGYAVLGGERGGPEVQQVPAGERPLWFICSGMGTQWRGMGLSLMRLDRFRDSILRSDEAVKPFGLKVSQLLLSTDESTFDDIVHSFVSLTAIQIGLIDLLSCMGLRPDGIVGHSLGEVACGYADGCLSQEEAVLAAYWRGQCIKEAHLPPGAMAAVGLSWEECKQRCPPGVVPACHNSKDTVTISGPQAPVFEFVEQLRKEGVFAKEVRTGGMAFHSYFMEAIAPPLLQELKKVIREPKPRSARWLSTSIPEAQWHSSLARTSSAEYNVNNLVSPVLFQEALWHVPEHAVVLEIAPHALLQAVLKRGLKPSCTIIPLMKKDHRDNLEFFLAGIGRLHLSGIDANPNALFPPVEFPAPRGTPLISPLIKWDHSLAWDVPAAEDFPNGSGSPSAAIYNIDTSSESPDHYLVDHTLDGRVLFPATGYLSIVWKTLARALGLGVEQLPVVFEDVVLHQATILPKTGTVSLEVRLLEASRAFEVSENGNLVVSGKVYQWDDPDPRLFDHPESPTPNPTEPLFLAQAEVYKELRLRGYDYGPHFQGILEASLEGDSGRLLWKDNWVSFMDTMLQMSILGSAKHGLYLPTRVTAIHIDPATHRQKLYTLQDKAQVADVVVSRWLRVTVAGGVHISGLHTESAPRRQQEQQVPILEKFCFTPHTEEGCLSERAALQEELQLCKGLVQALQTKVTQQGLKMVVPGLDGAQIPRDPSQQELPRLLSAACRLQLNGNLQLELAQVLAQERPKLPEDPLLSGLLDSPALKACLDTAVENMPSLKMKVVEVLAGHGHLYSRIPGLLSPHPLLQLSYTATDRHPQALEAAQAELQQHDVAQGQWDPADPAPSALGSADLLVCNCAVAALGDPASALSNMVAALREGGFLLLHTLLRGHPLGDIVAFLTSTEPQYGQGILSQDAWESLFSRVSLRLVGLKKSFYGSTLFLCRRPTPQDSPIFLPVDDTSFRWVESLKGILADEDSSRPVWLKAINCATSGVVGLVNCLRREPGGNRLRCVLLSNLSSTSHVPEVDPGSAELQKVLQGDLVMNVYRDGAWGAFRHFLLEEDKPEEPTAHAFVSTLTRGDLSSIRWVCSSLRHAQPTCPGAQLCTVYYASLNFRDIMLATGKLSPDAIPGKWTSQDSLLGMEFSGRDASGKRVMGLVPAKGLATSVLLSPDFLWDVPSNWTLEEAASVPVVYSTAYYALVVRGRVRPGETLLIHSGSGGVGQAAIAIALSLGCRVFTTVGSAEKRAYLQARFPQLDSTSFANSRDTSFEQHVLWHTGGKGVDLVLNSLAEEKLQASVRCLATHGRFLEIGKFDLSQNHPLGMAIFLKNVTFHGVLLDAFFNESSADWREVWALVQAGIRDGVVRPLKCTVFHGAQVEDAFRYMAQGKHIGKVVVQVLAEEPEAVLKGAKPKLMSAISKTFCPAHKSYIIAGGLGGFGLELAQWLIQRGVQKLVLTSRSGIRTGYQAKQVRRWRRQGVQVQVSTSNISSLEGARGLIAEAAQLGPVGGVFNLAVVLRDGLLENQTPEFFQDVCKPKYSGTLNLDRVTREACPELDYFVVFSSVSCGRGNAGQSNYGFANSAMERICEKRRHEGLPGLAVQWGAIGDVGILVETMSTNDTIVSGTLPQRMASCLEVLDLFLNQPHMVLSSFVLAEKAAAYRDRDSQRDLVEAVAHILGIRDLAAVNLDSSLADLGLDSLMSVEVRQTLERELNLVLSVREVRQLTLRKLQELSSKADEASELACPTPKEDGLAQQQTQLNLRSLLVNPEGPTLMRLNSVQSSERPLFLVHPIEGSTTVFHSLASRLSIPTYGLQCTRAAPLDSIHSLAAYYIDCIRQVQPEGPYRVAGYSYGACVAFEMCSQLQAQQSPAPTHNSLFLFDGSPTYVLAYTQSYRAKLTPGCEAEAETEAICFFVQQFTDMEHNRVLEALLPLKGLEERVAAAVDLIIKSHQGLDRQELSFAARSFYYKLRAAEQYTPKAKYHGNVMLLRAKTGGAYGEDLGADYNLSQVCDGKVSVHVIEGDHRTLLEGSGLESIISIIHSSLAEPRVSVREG

In the case of COc1ccc(C(CC(=O)Nc2ccccc2OC)n2cccc2)cc1 (stereo unspecified), the EC50 (cells [1]) is reported as 2.27 µM (active) and the EC50 (cells [2]) is reported as > 350 µM (not active).
For O=[N+]([O-])c1cccc(CN2CCN(c3cccc4[nH]ccc34)CC2)c1, the IC50 [3] was 45.4 µM (active) and the AC50 [4] was 2.06 µM (active).
In the case of CC(C)CCn1c(SCCc2ccccc2)nc2c1c(=O)[nH]c(=O)n2C, the EC50 [5] is reported as 35.6 µM (active) and the EC50 [6] is reported as 30.9 µM (active).
In the case of CC(Cc1ccccc1)NC(=O)c1cc([N+](=O)[O-])ccc1Cl (stereo unspecified), the IC50 (Fatty acid synthase [7]) is reported as 5.85 µM (active) and the IC50 (Fatty acid synthase [8]) is reported as 5.69 µM (active).
In the case of Cc1cccc(OCCn2cccc2/C=C2/C(=O)NC(=O)N(Cc3ccco3)C2=O)c1, the EC50 (cells [1]) is reported as > 350 µM (not active) and the EC50 (cells [2]) is reported as > 350 µM (not active).
In the case of Cc1noc(/C=C/c2ccco2)c1S(=O)(=O)N1CCC(C(=O)N2CCc3ccccc3C2)CC1, the EC50 [5] is reported as 26.9 µM (active) and the EC50 [6] is reported as 24.8 µM (active).
With CC(C)(C)N1C(=O)[C@H]2[C@@H](c3ccc(Br)cc3)N3C(=O)N(c4ccc(Br)cc4)C(=O)[C@@]3(Cc3ccccc3)[C@H]2C1=O the IC50 (Fatty acid synthase [7]) was 10.5 µM (active) and the IC50 (Fatty acid synthase [8]) was 10.3 µM (active).
With Cc1cccc(Oc2ccc(NC(=O)c3ccccc3C(=O)O)cc2)c1 the AC50 [4] was 5.07 µM (active).
With CCOC(=O)c1sc(Nc2cccc(Cl)c2)nc1C the EC50 (cells [1]) was 19.5 µM (active), the CC50 [9] was > 50 µM (active) and the EC50 (cells [2]) was > 350 µM (not active).
With O=C(CSc1nnc(SCc2cccc3ccccc23)s1)N=Nc1c(O)[nH]c2ccccc12 the EC50 [5] was 10.8 µM (active) and the EC50 [6] was 13.6 µM (active).
For Cc1cccc(NC(=O)COc2ccc(Br)cc2)n1, the IC50 (cells [10]) was 23.4 µM (active).
For Cc1ccc(C(=O)NC(=S)NNS(=O)(=O)c2ccc(C)cc2)cc1, the EC50 (cells [1]) was > 350 µM (not active), the AC50 [11] was 58.9 µM (active) and the EC50 (Protein RecA) was 146 µM (active). The EC50 (cells [2]) was > 350 µM (not active).
For Cc1sc2nc(CN3CCCC3)nc(Cl)c2c1C, the EC50 [5] was 11.2 µM (active) and the EC50 [6] was 16.2 µM (active).
For COc1ccc(-c2csc3nc(-c4ccccc4F)oc(=O)c23)cc1, the IC50 (Fatty acid synthase [7]) was 1.16 µM (active) and the IC50 (Fatty acid synthase [8]) was 2.83 µM (active).
With COC(=O)C1CSC(C(=O)OC)N1C(=O)CN1CCN(c2ccccc2)CC1 (stereo unspecified) the AC50 [4] was 2.84 µM (active).
With CCCCn1c(NC(C)CC)nc2c1c(=O)[nH]c(=O)n2C (stereo unspecified) the AC50 [4] was 4.01 µM (active).
In the case of COc1cc(C(=O)NCC(c2cccnc2)N2CCN(c3ccccc3)CC2)cc(OC)c1OC (stereo unspecified), the AC50 [4] is reported as 3.41 µM (active).
In the case of COc1cc(N(C(=O)Cc2cccs2)C(C(=O)NC2CCCCC2)c2ccc(C)cc2)ccc1-n1cnnn1 (stereo unspecified), the EC50 [5] is reported as 8.86 µM (active) and the EC50 [6] is reported as 8.44 µM (active).
With COc1ccc(NC(=O)Nc2ccc(Br)cn2)cc1 the EC50 (cells [1]) was > 350 µM (not active) and the EC50 (cells [2]) was > 350 µM (not active).
